{"source": "patent US11813264B2", "about": "“PAR1 modulation to alter myelination” (Mayo Foundation for Medical Education and Research, priority 2014, dated 2023)", "key": {"[1]": {"test_system": "Oli-neu oligodendrocytes", "assay": "Process retraction in Oli-neu oligodendrocytes (Phalloidin+ processes per cell)", "type": "cell-based, mouse", "conditions": "24 hours, PAR1-AP 100 μM, Klk1 300 nM", "method": "Oli-neu oligodendrocytes are derived from mouse primary oligodendrocyte cultures retrovirally transduced to constitutively express the t-neu oncogene (Jung et al., Eur J Neurosci 7:1245-1265, 1995). All morphology, signaling, and myelin gene expression studies using Oli-neu oligodendrocytes were performed in media containing DMEM, 1% N2, 2 mM Glutamax, 1 mM sodium pyruvate, 20 mM HEPES buffer, and 50 μM β-mercaptoethanol (Sigma Aldrich. To evaluate PAR and Klk6 gene expression in Oli-neu (Table 2), cells were differentiated by treatment with 1 mM N^6, 2′-O-dibutyryladenosine 3′, 5′-cyclic monophosphate disodium salt (dbcAMP) for 72 hours prior to harvesting for RNA isolation. All cells were maintained at 37° C. in 95% air and 5% CO2. Cell culture reagents were obtained from Life Technologies (Carlsbad, CA) unless otherwise indicated. All cell culture experiments were performed in triplicate and repeated at least twice.\n(§1) PAR agonist-induced changes in oligodendrocyte morphology: To determine the effects of recombinant Klk6, Klk1, thrombin, or PAR1-AP on oligodendroglia, 3 DIV PAR1^+/+, PAR1^−/−, and PAR2^−/− oligodendrocytes, PAR1^+/+ OPCs immediately post purification, or Oli-neu cells were grown on cover slips in the presence of agonists for 24 h. For ATP toxicity assays, oligodendrocytes were incubated with ATP (50 μM, Sigma Aldrich) in the presence of Klk6 or Klk1. Following each treatment, oligodendrocyte and OPC cultures were immunolabeled for O4 to visualize the cell body and processes. Oli-neu processes were visualized by staining the actin cytoskeleton with Cy3-conjugated Phalloidin.\n(§2) To assess the effects of Klk6 and other PAR1 agonists on oligodendrocyte morphology and process stability, 20× digital micrographs were overlaid with a 780 μm^2 grid and ImageJ software 1.45r (National Institutes of Health) used to record cell number and the number of processes crossing horizontal grid lines (Scarisbrick et al., Brain 125:1283-1296, 2002). Data are expressed as the mean number of O4^+ or Phalloidin^+ processes per DAPI^+ cell (±SEM)."}, "[2]": {"test_system": "primary oligodendrocyte cultures (3 DIV)", "assay": "Oligodendrocyte morphological differentiation scoring (simple, incomplete, complete, membrane), process and cell number", "type": "cell-based, mouse", "conditions": "24 hours", "method": "Oligodendrocyte Cultures: Purified cortical oligodendrocyte progenitor cells (OPCs) and differentiated oligodendrocytes were isolated from mixed glial cultures derived from postnatal day 1 mice (McCarthy and de Vellis, J Cell Blot 85:890-902, 1980). Glial cultures were grown in media containing DMEM, 2 mM Glutamax, 1 mM sodium pyruvate, 20 mM HEPES, and 10% heat-inactivated fetal calf serum (Atlanta Biologicals, Lawrenceville, GA). OPCs were isolated from 10 days-in-vitro (DIV) mixed glial cultures by overnight shaking and purified by differential adhesion. OPCs were seeded in defined Neurobasal A media containing 1% N2, 50 U/mL penicillin/streptomycin, 2 mM Glutamax, 1 mM sodium pyruvate, 0.45% glucose, and 50 μM β-mercaptoethanol (Sigma Aldrich, USA). OPCs were seeded at 3×10^4/cm^2 onto tissue culture plastic or 12 mm glass cover slips coated with poly-L-lysine (PLL, 10 μg/mL). After 24 h, cultures were 92-98% immunoreactive (IR) for sulfatide (O4) and by 72 hours at least 80% were also MBP-IR.\nas §1, §2\nThe extent of oligodendrocyte morphological differentiation was determined by scoring O4^+/DAPI^+ oligodendrocyte morphology as simple (only primary processes, no secondary branching), incomplete (one or more primary process without secondary branching), complete (all primary processes with secondary branching), or membrane (complete secondary branching with membrane sheets) (Huang et al., Nat Neurosci 14:45-53, 2011). The mean number of cells in each morphology class was determined across treatments and expressed as percent of total O4^+/DAPI^+ cells.\nChanges in OPC or oligodendrocyte morphology were quantified from five microscopic fields per cover slip with the mean and SEM calculated across three cover slips per experiment. Each experiment was repeated at least twice using independent cultures. Analysis of oligodendrocyte morphology was performed without knowledge of treatment groups."}}}
{"substance": "Klk6: Recombinant murine kallikrein-related peptidase 6 expressed using a baculovirus system", "values": [{"measurement": "Oli-neu cell number", "setting": "[1]; Klk6 30 nM", "value": "small but significant increase"}, {"measurement": "number of processes per cell", "setting": "[1]; Klk6 30, 150, 300 nM, thrombin 270 nM", "value": "significant and dose-dependent"}, {"measurement": "number of incomplete oligodendrocyte morphologies", "setting": "[2]; 150 nM", "value": "greater than four-fold increase"}, {"measurement": "number of simple oligodendrocyte morphologies", "setting": "[2]; 150 nM", "value": "two-fold increase"}, {"measurement": "oligodendrocytes with complete morphology", "setting": "[2]; 150 nM", "value": "nearly eleven-fold decrease"}, {"measurement": "oligodendroglia with membrane morphology", "setting": "[2]; 150 nM", "value": "elimination"}, {"measurement": "oligodendrocyte number", "setting": "[2]; Klk6 150 nM, Klk1 300 nM", "value": "no significant effect"}, {"measurement": "processes per cell", "setting": "[2]; Klk6 150 nM, Klk1 300 nM", "value": "two-fold fewer"}]}
